Source: patent US10344019B2 (priority 2010, dated 2019)

Tests used:
Format in all cases: cell-based
[1] = test system: Q30R in genotype 1a NS5A, 1a Rluc replicon transfected into Huh-7 cured-51 cells; experiment: HCV replicon assay, resistance mutant 1a Q30R; details: Hepatitis C virus, Huh-7, read-out: 1a Q30R
Experimental: Evaluation of cell-based anti-HCV activity: Antiviral potency (EC50) was determined using a Renilla luciferase (RLuc)-based HCV replicon reporter assay. To perform the assay for genotype 1 and 2a JFH-1, HCV 1b RLuc cells (harboring a dicistronic genotype 1b Con1 replicon that encodes a RLuc reporter), or HCV 1a RLuc cells (harboring a dicistronic genotype 1a H77 replicon that encodes a RLuc reporter), or HCV 2a JFH-1 Rluc cells (harboring a dicistronic genotype 2a JFH-1 replicon that encodes a RLuc reporter) were dispensed into 384-well plates. To perform the assay for genotype 2a (with M31 present) or 2b, HCV 2a Rluc or 2b Rluc cells (both with M31 present) harboring a dicistronic NS5A chimeric genotype 2a JFH-1 replicon that encodes a RLuc reporter and either genotype 2a J6 strain NS5A gene or genotype 2b MD2b-1 NS5A gene (based on Los Alamos HCV database isolates, both with M31 present) respectively, were dispensed into 384-well plates. To perform the assay for genotype 3 and 4, HCV 3a RLuc or 4a Rluc cells harboring a dicistronic NS5A chimeric genotype 1b Con1 replicon that encodes a RLuc reporter and either a consensus genotype 3a NS5A gene or genotype 4a NS5A gene (based on Los Alamos HCV database isolates) respectively, were dispensed into 384-well plates. Compounds were re-suspended in DMSO at a concentration of 10 mM and serially diluted in DMSO either manually or using an automated pipeting instrument. Serially diluted compounds were mixed with cell culture media and added to the seeded cells. […] 72 hours later, cells were lysed and Renilla luciferase activity quantified as recommended by the manufacturer (Promega-Madison, Wis.). Non-linear regression was performed to calculate EC50 values.
To determine the antiviral potency (EC50) against resistance mutants, resistance mutations, including M28T, Q30R, Q30H, L31M, and Y93C in genotype 1a NS5A and Y93H in genotype 1b NS5A, were introduced individually into either 1a Rluc or 1b Rluc replicons described above by site directed mutagenesis. Replicon RNA of each resistant mutant was transfected into Huh-7 cured-51 cells and antiviral potency was determined on these transfected cells as described above.

[2] = test system: HCV 2a Rluc cells (NS5A chimeric genotype 2a JFH-1 replicon with genotype 2a J6 strain NS5A gene, M31 present); experiment: HCV replicon reporter assay, genotype 2a J6 (M31 present); details: Hepatitis C virus, read-out: 2a J6
Method in brief: (§1)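 Renilla luciferase HCV replicon cells: dicistronic 1b Con1, 1a H77 or 2a JFH-1 replicons, or a JFH-1 chimera carrying J6 NS5A (M31 present). Compound in DMSO serial dilutions, 72 h incubation, then lysis and luciferase read. EC50 by non-linear regression.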

[3] = test system: HCV 1a RLuc cells (dicistronic genotype 1a H77 replicon, RLuc reporter); experiment: microbe, parasite or virus in culture; details: Hepatitis C virus, genotype 1a H77 RLuc replicon; read-out: 1a
Method in brief: as §1

[4] = test system: HCV 2b Rluc cells (NS5A chimeric genotype 2a JFH-1 replicon with genotype 2b MD2b-1 NS5A gene, M31 present); experiment: microbe, parasite or virus in culture; details: Hepatitis C virus, read-out: 2b
Method in brief: (§2)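 Replicon cells stably carrying the listed RLuc-encoding dicistronic replicons were seeded and treated with DMSO serial dilutions of compound (10 mM stocks) diluted into culture medium. After 72 h, cells were lysed and Renilla luciferase activity measured. EC50 was derived by non-linear regression.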

[5] = test system: HCV 3a RLuc cells (NS5A chimeric genotype 1b Con1 replicon with consensus genotype 3a NS5A gene); experiment: microbe, parasite or virus in culture; details: Hepatitis C virus, read-out: 3a, genotype 3a NS5A chimeric replicon
Method in brief: as §2

[6] = test system: HCV 4a Rluc cells (NS5A chimeric genotype 1b Con1 replicon with genotype 4a NS5A gene); experiment: microbe, parasite or virus in culture; details: Hepatitis C virus, read-out: 4a
Method in brief: as §2

[7] = test system: HCV 2a JFH-1 Rluc cells (dicistronic genotype 2a JFH-1 replicon, RLuc reporter); experiment: microbe, parasite or virus in culture; details: Hepatitis C virus, genotype 2a JFH-1 RLuc replicon; read-out: 2a JFH
Method in brief: as §1

[8] = test system: HCV 1b RLuc cells (dicistronic genotype 1b Con1 replicon, RLuc reporter); experiment: microbe, parasite or virus in culture; details: Hepatitis C virus, read-out: 1b (nM)
Method in brief: as §1

Row | SMILES | EC50 [1] | EC50 [2] | EC50 [3] | EC50 [4] | EC50 [5] | EC50 [6] | EC50 [7] | EC50 [8]
1 | COC[C@H]1C[C@@H](c2nc3ccc4cc5c(cc4c3[nH]2)OCc2cc(-c3cnc([C@@H]4C[C@H](C)CN4C(=O)[C@H](NC(=O)OC)c4ccccc4)[nH]3)ccc2-5)N(C(=O)[C@@H](NC(=O)OC)C(C)C)C1 [Example 572] | 0.001 to 0.999 nM | 0.001 to 0.999 nM | 0.001 to 0.999 nM | 0.001 to 0.999 nM | 0.001 to 0.99 nM | 0.001 to 0.99 nM | 0.001 to 0.999 nM | 
2 | COC(=O)N[C@H](C(=O)N1[C@@H](C)CC[C@H]1c1ncc(-c2ccc3c(c2)COc2cc4c(ccc5nc([C@@H]6CC[C@H](C)N6C(=O)[C@@H](NC(=O)OC)[C@@H](C)OC)[nH]c54)cc2-3)[nH]1)[C@@H](C)OC [Example 592] | 0.001 to 0.999 nM | 0.001 to 0.999 nM | 0.001 to 0.999 nM | 0.001 to 0.999 nM | 0.001 to 0.99 nM | 0.001 to 0.99 nM | 0.001 to 0.999 nM | 
3 | COC(=O)N[C@H](C(=O)N1CCC[C@H]1c1ncc(-c2ccc3c(c2)COc2cc4c(ccc5nc([C@@H]6C[C@H](C)CN6C(=O)[C@H](NC(=O)OC)c6ccccc6)[nH]c54)cc2-3)[nH]1)C(C)C [Example 543] | 0.001 to 0.999 nM | 0.001 to 0.999 nM | 0.001 to 0.999 nM | 0.001 to 0.999 nM | 0.001 to 0.99 nM | 0.001 to 0.99 nM | 0.001 to 0.999 nM | 
4 | COC[C@H]1C[C@@H](c2nc3c([nH]2)-c2cc4c(cc2CC3)-c2ccc(-c3cnc([C@@H]5CCCN5C(=O)[C@@H](NC(=O)OC)C(C)C)[nH]3)cc2CO4)N(C(=O)[C@H](NC(=O)OC)c2ccccc2)C1 [Example 587] | 0.001 to 0.999 nM | 0.001 to 0.999 nM | 0.001 to 0.999 nM | 0.001 to 0.999 nM | 0.001 to 0.99 nM | 0.001 to 0.99 nM | 0.001 to 0.999 nM | 
5 | COC[C@H]1C[C@@H](c2ncc(-c3ccc4c(c3)COc3cc5c(cc3-4)CCc3nc([C@@H]4CCCN4C(=O)[C@@H](NC(=O)OC)C(C)C)[nH]c3-5)[nH]2)N(C(=O)[C@H](NC(=O)OC)c2ccccc2)C1 [Example 606] | 0.001 to 0.999 nM | 0.001 to 0.999 nM | 0.001 to 0.999 nM | 0.001 to 0.999 nM | 0.001 to 0.99 nM |  | 0.001 to 0.999 nM | 0.034 nM
6 | COC(=O)N[C@H](C(=O)N1[C@@H](C)CC[C@H]1c1ncc(-c2ccc3c(c2)COc2cc4c(ccc5nc([C@@H]6CCCN6C(=O)[C@H](NC(=O)OC)c6ccccc6)[nH]c54)cc2-3)[nH]1)C(C)C [Example 605] | 0.001 to 0.999 nM | 0.001 to 0.999 nM | 0.001 to 0.999 nM | 0.001 to 0.999 nM | 0.001 to 0.99 nM |  | 0.001 to 0.999 nM | 0.015 nM
7 | COC[C@H]1C[C@@H](c2nc3ccc4cc5c(cc4c3[nH]2)OCc2cc(-c3cnc([C@@H]4CC[C@H](C)N4C(=O)[C@@H](NC(=O)OC)C(C)C)[nH]3)ccc2-5)N(C(=O)[C@@H](NC(=O)OC)[C@@H](C)OC)C1 [Example 615] | 0.001 to 0.999 nM | 0.001 to 0.999 nM | 0.001 to 0.999 nM | 0.001 to 0.999 nM | 0.001 to 0.99 nM |  | 0.001 to 0.999 nM | 0.019 nM
8 | COC[C@H]1C[C@@H](c2ncc(-c3ccc4c(c3)COc3cc5c(ccc6nc([C@@H]7C[C@H](C)CN7C(=O)[C@@H](NC(=O)OC)C(C)C)[nH]c65)cc3-4)[nH]2)N(C(=O)[C@H](NC(=O)OC)c2ccccc2)C1 [Example 622] | 0.001 to 0.999 nM | 0.001 to 0.999 nM | 0.001 to 0.999 nM | 0.001 to 0.999 nM | 0.001 to 0.99 nM |  | 0.001 to 0.999 nM | 0.016 nM
9 | COC(=O)N[C@H](C(=O)N1C[C@@H](COC(F)F)C[C@H]1c1nc2ccc3cc4c(cc3c2[nH]1)OCc1cc(-c2cnc([C@@H]3CCCN3C(=O)[C@H](NC(=O)OC)c3ccccc3)[nH]2)ccc1-4)C(C)C [Example 558] | 0.001 to 0.999 nM | 0.001 to 0.999 nM | 0.001 to 0.999 nM | 0.001 to 0.999 nM |  | 0.001 to 0.99 nM | 0.001 to 0.999 nM | 0.014 nM
10 | COC[C@H]1C[C@@H](c2ncc(-c3ccc4c(c3)COc3cc5c(ccc6nc([C@@H]7CC[C@H](C)N7C(=O)[C@@H](NC(=O)OC)C(C)C)[nH]c65)cc3-4)[nH]2)N(C(=O)[C@@H](NC(=O)OC)[C@@H](C)OC)C1 [Example 610] | 0.001 to 0.999 nM | 0.001 to 0.999 nM | 0.001 to 0.999 nM | 0.001 to 0.999 nM | 0.001 to 0.99 nM |  | 0.001 to 0.999 nM | 0.013 nM
11 | CC[C@H](C)[C@H](NC(=O)OC)C(=O)N1C[C@@H](COC)C[C@H]1c1nc2ccc3cc4c(cc3c2[nH]1)OCc1cc(-c2cnc([C@@H]3CC[C@H](C)N3C(=O)[C@@H](NC(=O)OC)[C@@H](C)CC)[nH]2)ccc1-4 [Example 597] | 0.001 to 0.999 nM | 0.001 to 0.999 nM | 0.001 to 0.999 nM | 0.001 to 0.999 nM | 0.001 to 0.99 nM |  | 0.001 to 0.999 nM | 0.005 nM
12 | COC(=O)N[C@H](C(=O)N1[C@@H](C)CC[C@H]1c1ncc(-c2cc3c4c(c2)OCc2cc(-c5cnc([C@@H]6CC[C@H](C)N6C(=O)[C@@H](NC(=O)OC)[C@@H](C)OC)[nH]5)cc(c2-4)OC3)[nH]1)[C@@H](C)OC [Example 616] | 0.001 to 0.999 nM | 0.001 to 0.999 nM | 0.001 to 0.999 nM | 0.001 to 0.999 nM | 0.001 to 0.99 nM |  | 0.001 to 0.999 nM | 0.018 nM
13 | COC(=O)N[C@H](C(=O)N1[C@@H](C)CC[C@H]1c1ncc(-c2ccc3c(c2)COc2cc4c(ccc5nc([C@@H]6C[C@H](C)CN6C(=O)[C@H](NC(=O)OC)c6ccccc6)[nH]c54)cc2-3)[nH]1)C(C)C [Example 617] | 0.001 to 0.999 nM | 0.001 to 0.999 nM | 0.001 to 0.999 nM | 0.001 to 0.999 nM | 0.001 to 0.99 nM |  | 0.001 to 0.999 nM | 0.005 nM
14 | COC[C@H]1C[C@@H](c2ncc(-c3ccc4c(c3)COc3cc5c(ccc6nc([C@@H]7C[C@H]8CC8N7C(=O)[C@H](NC(=O)OC)c7ccccc7)[nH]c65)cc3-4)[nH]2)N(C(=O)[C@@H](NC(=O)OC)C(C)C)C1 (some centres unmarked) [Example 601] | 0.001 to 0.999 nM | 0.001 to 0.999 nM | 0.001 to 0.999 nM | 0.001 to 0.999 nM | 0.001 to 0.99 nM |  | 0.001 to 0.999 nM | 0.014 nM
